pIC50: −log10 of the molar value. Where two headings read alike, the source gives them in different places.
Legend:
hERG channel = conditions: cited from earlier work
[1] = test system: human engineered heart tissue (hEHT); conditions: for Threshold concentration at which the compound significantly decreased relaxation velocity / Threshold concentration inducing irregular beating patterns (RR-scatter): human, 30 min
Description: Calcium-concentration response curves were established in DMEM, 1% penicillin/streptomycin, 10 mM HEPES, and 100 µM acetylcysteine with calcium concentrations adjusted to the desired final concentration (0.2–3.0 mmol/L). Equilibration time was 20 minutes. Measurements were performed under spontaneous activity by automated video-optical recording and analysis (customized software, Consulting Team Machine Vision) as previously described. Contractile force F was calculated from the degree of post deflection δ (µm), silicone post length (L) and radius (R) and elastic modulus (E) by the formula F = 3πER^4δ/4L^3 [29]. Contraction- and relaxation velocities were calculated as the average maximal steepness of twitch contraction or relaxation, respectively. Each value represents the mean of all measurable contraction twitches in the recording period of 60 seconds per hEHT.
EHTs were equilibrated in DMEM, 1% penicillin/streptomycin, 10 mM HEPES, 100 µM acetylcysteine for one hour. […] Isoprenaline and carbachol were used at 100 nM and 10 µM, respectively.
Intervals between two contractions were determined for all recordings. […] Interval scatter was therefore defined as the length between 10th and 90th percentile (interdecile range, IDR). Statistical difference between groups of biological replicas were determined with Mann-Whitney U Test (*P<0.05).

[2] = test system: hESC-derived cardiomyocytes (EBs and EHTs); assay: Action potential measurements with sharp microelectrodes (zero current clamp); assay type: cell-based, human
[3] = read-out: Published IC50 (hERG), hERG channel assays

Cc1cccc(CCN2CCC(C(=O)c3ccc(NS(C)(=O)=O)cc3)CC2)n1 [E-4031]
Effect on APD ([2]; 300 nM, P<0.05, n = 4): significant prolongation

CCN(CC)CCNC(=O)c1ccc(N)cc1 [Procainamide]
pIC50 (hERG channel; [3]): 3.86 | Threshold concentration at which the compound significantly decreased relaxation velocity [1]: 100000 nM | Threshold concentration inducing irregular beating patterns (RR-scatter) [1]: 100000 nM

[Ca+2] [calcium]
Decrease in force ([1]; hEHT, lowering calcium from 1.8 mM (baseline) to 0.2 mM): 90%

C[N+](C)(C)CCOC(N)=O [carbachol]
Effect on isoprenaline-induced changes in frequency and force ([1]; hEHT, 10 µM, after isoprenaline 100 nM, 0.6 mM calcium): reversed

CC(C)NCC(O)c1ccc(O)c(O)c1 (centres unmarked) [isoprenaline]
Effect on beating frequency ([1]; hEHT, 100 nM, 0.6 mM calcium): positive chronotropic effect | Effect on force ([1]; hEHT, 100 nM, 0.6 mM calcium): trend towards an increase in force (not significant)

COC(=O)C1=C(C)NC(C)=C(C(=O)OCC(C)C)C1c1ccccc1[N+](=O)[O-] (centres unmarked) [nisoldipine]
Effect on electrical activity and contractions ([2]; 1 µM, all spontaneously beating hESC cultures): completely interrupted

NC1=N[C@H](O)[C@H]2[C@H]3O[C@]4(O)O[C@@H]([C@@H](O)[C@@]2(N1)[C@@H]4O)[C@]3(O)CO [tetrodotoxin]
Effect on AP upstroke velocity [2]: significant decrease | Effect on APD80 and diastolic interval [2]: significant prolongation

— article PMC3197640, “Human Engineered Heart Tissue as a Versatile Tool in Basic Research and Preclinical Toxicology” (PLoS ONE, 2011)
